From patent publication US10711004B2 (Genentech, Inc., priority 2018, dated 2020) come the findings set out here.

The experiment deals with human TRPA1 channel (Homo sapiens (Human), UniProt O75762). Briefly: hTRPA1 CHO Ca2+ FLIPR Tetra assay, block of cinnamaldehyde induced calcium influx. It counts as cell-based. As to conditions: for IC50: CHO cells expressing TRPA1, Hill coefficient fixed to 1.5; for TRPA1 IC50 compared with 3-azabicyclo[3.1.0]hexene linker and cyclobutylene linker analogues: bicyclo[3.1.0]hexene linker compounds versus same-substituent analogues (compounds 16, 191; 26, 1). The gist of the method: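 Calcium-dye-loaded TRPA1-expressing CHO cells in HBSS/20 mM HEPES pH 7.4, 0.02% BSA were preincubated with compound for 10 or 90 min at room temperature. Calcium influx evoked by roughly an EC50 concentration of cinnamaldehyde was then read on FLIPR Tetra; IC50 came from curve fits with a fixed Hill coefficient.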

[1] abbreviates: read-out: hTRPA1 IC50 (10 min), compounds incubated 10 minutes at room temperature before cinnamaldehyde agonist.
[2] abbreviates: read-out: hTRPA1 IC50 (90 min), compounds incubated 90 minutes at room temperature before cinnamaldehyde agonist.
Setting [3] is: compounds incubated 90 minutes at room temperature before cinnamaldehyde agonist.

Each structure is given as a SMILES string. Where two headings read alike, the source gives them in different places.

Chain of human TRPA1 channel (O75762 whole entry): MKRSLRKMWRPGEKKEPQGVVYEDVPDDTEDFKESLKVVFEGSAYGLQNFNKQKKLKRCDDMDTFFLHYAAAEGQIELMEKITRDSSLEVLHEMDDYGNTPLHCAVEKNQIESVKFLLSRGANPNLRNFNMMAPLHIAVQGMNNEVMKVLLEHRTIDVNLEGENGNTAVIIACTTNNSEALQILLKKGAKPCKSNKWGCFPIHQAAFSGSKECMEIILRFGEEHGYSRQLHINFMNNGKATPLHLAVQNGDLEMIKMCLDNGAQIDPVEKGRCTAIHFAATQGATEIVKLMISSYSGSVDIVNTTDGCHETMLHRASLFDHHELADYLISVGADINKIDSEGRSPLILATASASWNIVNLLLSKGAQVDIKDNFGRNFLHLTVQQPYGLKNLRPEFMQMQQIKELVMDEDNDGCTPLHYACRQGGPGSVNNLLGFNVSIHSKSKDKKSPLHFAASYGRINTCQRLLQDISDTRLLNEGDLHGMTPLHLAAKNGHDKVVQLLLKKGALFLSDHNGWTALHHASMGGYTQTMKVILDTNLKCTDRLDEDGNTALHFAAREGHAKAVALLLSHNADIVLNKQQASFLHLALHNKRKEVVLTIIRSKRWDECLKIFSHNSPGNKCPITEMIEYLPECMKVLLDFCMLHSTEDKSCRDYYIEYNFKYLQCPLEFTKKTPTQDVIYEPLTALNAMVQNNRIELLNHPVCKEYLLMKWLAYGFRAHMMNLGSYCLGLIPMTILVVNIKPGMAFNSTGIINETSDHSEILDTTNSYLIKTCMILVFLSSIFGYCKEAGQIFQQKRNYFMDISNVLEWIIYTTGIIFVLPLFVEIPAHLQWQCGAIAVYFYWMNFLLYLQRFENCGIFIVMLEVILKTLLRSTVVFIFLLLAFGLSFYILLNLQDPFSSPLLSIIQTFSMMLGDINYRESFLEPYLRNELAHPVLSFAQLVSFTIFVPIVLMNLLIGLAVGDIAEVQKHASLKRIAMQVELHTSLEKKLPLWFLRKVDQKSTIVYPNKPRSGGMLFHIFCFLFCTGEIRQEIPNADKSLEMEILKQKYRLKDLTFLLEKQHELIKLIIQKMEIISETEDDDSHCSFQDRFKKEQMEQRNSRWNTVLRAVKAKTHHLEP

`Cc1ccnc2ncn(Cc3nc([C@H]4C[C@](F)(c5cccc(Cl)c5)C4)no3)c(=O)c12` [Example Compound 210, 3-((3-((1s,3s)-3-(3-chlorophenyl)-3-fluorocyclobutyl)-1,2,4-oxadiazol-5-yl)methyl)-5-methylpyrido[2,3-d]pyrimidin-4(3H)-one]: the IC50 (usually the concentration needed to halve the response being measured) under setting [1] turned out to be 15.1 nM.

On to `Cn1cnc2ncn(Cc3nc([C@H]4[C@@H]5CN(c6ccc7ncsc7c6)C[C@@H]54)no3)c(=O)c21` [Example Compound 211, 1-((3-((1R,5S,6r)-3-(benzo[d]thiazol-6-yl)-3-azabicyclo[3.1.0]hexan-6-yl)-1,2,4-oxadiazol-5-yl)methyl)-7-methyl-1,7-dihydro-6H-purin-6-one], for which the IC50 came out at 63.8 nM under setting [1] and 10 nM under setting [2].

Take `Cn1cnc2ncn(Cc3nc([C@H]4[C@@H]5CN(c6cc(Cl)ccn6)C[C@@H]54)no3)c(=O)c21` [Example Compound 212, 1-((3-((1R,5S,6r)-3-(4-chloropyridin-2-yl)-3-azabicyclo[3.1.0]hexan-6-yl)-1,2,4-oxadiazol-5-yl)methyl)-7-methyl-1,7-dihydro-6H-purin-6-one]: the IC50 reads like this: under setting [1], 84.7 nM; under setting [2], 25 nM.

For the compound `O=c1c2cccnc2cnn1Cc1nc([C@H]2[C@@H]3CN(c4ccccc4)C[C@@H]32)no1` [Example Compound 213, 6-((3-((1R,5S,6r)-3-phenyl-3-azabicyclo[3.1.0]hexan-6-yl)-1,2,4-oxadiazol-5-yl)methyl)pyrido[2,3-d]pyridazin-5(6H)-one], the half-inhibitory concentration (IC50) amounted to 15.4 nM (compounds incubated 10 minutes at room temperature before cinnamaldehyde agonist), 8.5 nM under setting [3], 6.17 nM under setting [1] and 5.1 nM under setting [2].

Consider `O=c1c2cccnc2cnn1Cc1nc([C@H]2[C@@H]3CN(c4cccc(Cl)c4)C[C@@H]32)no1` [Example Compound 214, 6-((3-((1R,5S,6r)-3-(3-chlorophenyl)-3-azabicyclo[3.1.0]hexan-6-yl)-1,2,4-oxadiazol-5-yl)methyl)pyrido[2,3-d]pyridazin-5(6H)-one], for which the IC50 under setting [1] stood at 2.88 nM.

Consider `Cn1c(=O)c2c(ncn2Cc2nc([C@H]3[C@@H]4CN(c5cccc(Cl)c5)C[C@@H]43)no2)n(C)c1=O` [Example Compound 215, 7-((3-((1R,5S,6r)-3-(3-chlorophenyl)-3-azabicyclo[3.1.0]hexan-6-yl)-1,2,4-oxadiazol-5-yl)methyl)-1,3-dimethyl-3,7-dihydro-1H-purine-2,6-dione], for which, under setting [1], the IC50 is 56.5 nM.

For the compound `O=c1c2cccnc2ncn1Cc1nc([C@H]2[C@@H]3CN(c4cccc(Cl)c4)C[C@@H]32)no1` [Example Compound 216, 3-((3-((1R,5S,6r)-3-(3-chlorophenyl)-3-azabicyclo[3.1.0]hexan-6-yl)-1,2,4-oxadiazol-5-yl)methyl)pyrido[2,3-d]pyrimidin-4(3H)-one], the IC50 was determined as 13 nM under setting [3] and 13.8 nM under setting [1].

In the case of `Cn1cnc2ncn(Cc3nc([C@H]4C[C@H](Oc5cccc(Cl)c5)C4)no3)c(=O)c21` [Example Compound 217, 1-((3-((1r,3r)-3-(3-chlorophenoxy)cyclobutyl)-1,2,4-oxadiazol-5-yl)methyl)-7-methyl-1,7-dihydro-6H-purin-6-one], the IC50 under setting [1] stood at 38 nM.

As to `Cn1cnc2ncn(Cc3nc([C@H]4C[C@H](Oc5ccc(Cl)cc5)C4)no3)c(=O)c21` [Example Compound 218, 1-((3-((1r,3r)-3-(4-chlorophenoxy)cyclobutyl)-1,2,4-oxadiazol-5-yl)methyl)-7-methyl-1,7-dihydro-6H-purin-6-one], the IC50 was 24.9 nM under setting [1] and 13 nM under setting [2].

`Cn1cnc2ncn(Cc3nc([C@H]4[C@@H]5CN(c6cc(Cl)c(F)cc6F)C[C@@H]54)no3)c(=O)c21` [Example Compound 219, 1-((3-((1R,5S,6r)-3-(5-chloro-2,4-difluorophenyl)-3-azabicyclo[3.1.0]hexan-6-yl)-1,2,4-oxadiazol-5-yl)methyl)-7-methyl-1,7-dihydro-6H-purin-6-one]: the IC50 reads like this: under setting [1], 29.3 nM; under setting [2], 31 nM.

Regarding `Cn1cnc2ncn(Cc3nc([C@H]4C[C@H](c5ccc(F)c(Cl)c5)C4)no3)c(=O)c21` [Example Compound 220, 1-((3-((1r,3r)-3-(3-chloro-4-fluorophenyl)cyclobutyl)-1,2,4-oxadiazol-5-yl)methyl)-7-methyl-1,7-dihydro-6H-purin-6-one], the IC50 under setting [1] was determined as 54.6 nM.

With `Cn1cnc2ncn(Cc3nc([C@H]4[C@@H]5CN(c6ccc7scnc7c6)C[C@@H]54)no3)c(=O)c21` [Example Compound 221, 1-((3-((1R,5S,6r)-3-(benzo[d]thiazol-5-yl)-3-azabicyclo[3.1.0]hexan-6-yl)-1,2,4-oxadiazol-5-yl)methyl)-7-methyl-1,7-dihydro-6H-purin-6-one], the IC50 is, setting by setting: under setting [1], 94 nM; under setting [2], 41 nM.

With `Cn1cnc2ncn(Cc3nc([C@H]4[C@@H]5CN(c6c(F)ccc(Cl)c6F)C[C@@H]54)no3)c(=O)c21` [Example Compound 222, 1-((3-((1R,5S,6r)-3-(3-chloro-2,6-difluorophenyl)-3-azabicyclo[3.1.0]hexan-6-yl)-1,2,4-oxadiazol-5-yl)methyl)-7-methyl-1,7-dihydro-6H-purin-6-one], the IC50 turned out to be 29.7 nM under setting [1] and 6.7 nM under setting [2].

As to `Cn1cnc2ncn(Cc3nc([C@H]4CC[C@H](c5ccc(Cl)cc5)C4)no3)c(=O)c21` [Example Compound 223, 1-((3-((1S,3S)-3-(4-chlorophenyl)cyclopentyl)-1,2,4-oxadiazol-5-yl)methyl)-7-methyl-1,7-dihydro-6H-purin-6-one], the IC50 under setting [1] is 22.2 nM.

`Cc1cccc(N2C[C@@H]3[C@H](C2)[C@H]3c2noc(Cn3cnc4ncn(C)c4c3=O)n2)c1` [Example Compound 224, 7-methyl-1-((3-((1R,5S,6r)-3-(m-tolyl)-3-azabicyclo[3.1.0]hexan-6-yl)-1,2,4-oxadiazol-5-yl)methyl)-1,7-dihydro-6H-purin-6-one]: the IC50 by setting is: under setting [1], 71.6 nM; under setting [2], 19 nM.

For `Cn1cnc2ncn(Cc3nc([C@H]4[C@@H]5C=C(c6ccccc6)C[C@@H]54)no3)c(=O)c21` [Example Compound 225, 7-methyl-1-((3-((1S,5S,6R)-3-phenylbicyclo[3.1.0]hex-2-en-6-yl)-1,2,4-oxadiazol-5-yl)methyl)-1,7-dihydro-6H-purin-6-one], the “TRPA1 IC50 compared with 3-azabicyclo[3.1.0]hexene linker and cyclobutylene linker analogues” value was “improved TRPA1 IC50 values”. In addition, under setting [1], the IC50 amounted to 13.8 nM. Besides, the IC50 under setting [2] is 1.7 nM.

On to `Cn1cnc2ncn(Cc3nc([C@@H]4[C@H]5C=C(c6ccccc6)C[C@H]54)no3)c(=O)c21` [Example Compound 226, 7-methyl-1-((3-((1R,5R,6S)-3-phenylbicyclo[3.1.0]hex-2-en-6-yl)-1,2,4-oxadiazol-5-yl)methyl)-1,7-dihydro-6H-purin-6-one], for which the “TRPA1 IC50 compared with 3-azabicyclo[3.1.0]hexene linker and cyclobutylene linker analogues” value is on record as “improved TRPA1 IC50 values”. In addition, under setting [1], the 50% inhibitory concentration (IC50) is 21.6 nM. In addition, the IC50 under setting [2] was 9.9 nM.

For `Cc1ccnc2ncn(Cc3nc([C@@H]4[C@H]5C=C(c6ccccc6)C[C@H]54)no3)c(=O)c12` [Example Compound 227, 5-methyl-3-((3-((1R,5R,6S)-3-phenylbicyclo[3.1.0]hex-2-en-6-yl)-1,2,4-oxadiazol-5-yl)methyl)pyrido[2,3-d]pyrimidin-4(3H)-one], the IC50 under setting [1] is 14 nM.

As to `Cn1cnc2ncn(Cc3nc([C@H]4[C@@H]5CN(c6ccccn6)C[C@@H]54)no3)c(=O)c21` [Example Compound 228, 7-methyl-1-((3-((1R,5S,6r)-3-(pyridin-2-yl)-3-azabicyclo[3.1.0]hexan-6-yl)-1,2,4-oxadiazol-5-yl)methyl)-1,7-dihydro-6H-purin-6-one], the IC50 under setting [1] was determined as 223 nM and the IC50 under setting [2] is 130 nM.

On to `Cn1cnc2ncn(Cc3nc([C@H]4[C@@H]5CN(c6ccc(Cl)c(F)c6)C[C@@H]54)no3)c(=O)c21` [Example Compound 229, 1-((3-((1R,5S,6r)-3-(4-chloro-3-fluorophenyl)-3-azabicyclo[3.1.0]hexan-6-yl)-1,2,4-oxadiazol-5-yl)methyl)-7-methyl-1,7-dihydro-6H-purin-6-one], for which the half-maximal inhibitory concentration (IC50) reads like this: under setting [1], 21.7 nM; under setting [2], 10 nM.

Regarding `O=c1c2ccncc2ncn1Cc1nc([C@H]2[C@@H]3CN(c4cccc(Cl)c4)C[C@@H]32)no1` [Example Compound 230, 3-((3-((1R,5S,6r)-3-(3-chlorophenyl)-3-azabicyclo[3.1.0]hexan-6-yl)-1,2,4-oxadiazol-5-yl)methyl)pyrido[3,4-d]pyrimidin-4(3H)-one], the IC50 under setting [1] amounted to 33.1 nM.

As for `Cn1cnc2ncn(Cc3nc([C@H]4C[C@H](c5ccc6ccccc6c5)C4)no3)c(=O)c21` [Example Compound 231, 7-methyl-1-((3-((1r,3r)-3-(naphthalen-2-yl)cyclobutyl)-1,2,4-oxadiazol-5-yl)methyl)-1,7-dihydro-6H-purin-6-one], the IC50 under setting [1] worked out at 57.3 nM.

On to `Cc1cncc2ncn(Cc3nc([C@H]4C[C@](O)(c5ccc6ccccc6c5)C4)no3)c(=O)c12` [Example Compound 232, 3-((3-((1s,3s)-3-hydroxy-3-(naphthalen-2-yl)cyclobutyl)-1,2,4-oxadiazol-5-yl)methyl)-5-methylpyrido[3,4-d]pyrimidin-4(3H)-one], for which, under setting [2], the IC50 is 4.8 nM.

Regarding `Cc1ccnc2ncn(Cc3nc([C@H]4C[C@](O)(c5ccc6ccccc6c5)C4)no3)c(=O)c12` [Example Compound 233, 3-((3-((1s,3s)-3-hydroxy-3-(naphthalen-2-yl)cyclobutyl)-1,2,4-oxadiazol-5-yl)methyl)-5-methylpyrido[2,3-d]pyrimidin-4(3H)-one], the half-inhibitory concentration (IC50) under setting [1] came to 38.6 nM.
